From ChEMBL document CHEMBL4507266, “Data for DCP probe BAY-784” (2021)

Legend:
[1] = target: Ribosomal protein S6 kinase alpha-3 (Homo sapiens) (UniProt P51812); details: Compound concentration 1000.0 nM
[2] = target: Serine/threonine-protein kinase WNK1 (Homo sapiens) (UniProt Q9H4A3); details: Compound concentration 1000.0 nM
[3] = test system: Mast/stem cell growth factor receptor Kit (Homo sapiens), P10721 [V559D]; details: Compound concentration 1000.0 nM
[4] = target: Misshapen-like kinase 1 (Homo sapiens) (UniProt Q8N4C8); details: Compound concentration 1000.0 nM
[5] = target: Mitogen-activated protein kinase kinase kinase kinase 1 (Homo sapiens) (UniProt Q92918); details: Compound concentration 1000.0 nM
[6] = target: Myosin light chain kinase (Homo sapiens) (UniProt Q32MK0); details: Compound concentration 1000.0 nM
[7] = target: Mitogen-activated protein kinase kinase kinase 1 (Homo sapiens) (UniProt Q13233); details: Compound concentration 1000.0 nM
[8] = target: Beta-adrenergic receptor kinase 1 (Homo sapiens) (UniProt P25098); details: Compound concentration 1000.0 nM
[9] = target: Rhodopsin kinase GRK1 (Homo sapiens) (UniProt Q15835); details: Compound concentration 1000.0 nM
[10] = target: Tyrosine-protein kinase Lyn (Homo sapiens) (UniProt P07948); details: Compound concentration 1000.0 nM
[11] = target: High affinity nerve growth factor receptor (Homo sapiens) (UniProt P04629); details: Compound concentration 1000.0 nM
[12] = target: Serine/threonine-protein kinase PAK 6 (Homo sapiens) (UniProt Q9NQU5); details: Compound concentration 1000.0 nM
[13] = target: Proto-oncogene tyrosine-protein kinase Src (Homo sapiens) (UniProt P12931); details: Compound concentration 1000.0 nM
[14] = target: Rho-associated protein kinase 1 (Homo sapiens) (UniProt Q13464); details: Compound concentration 1000.0 nM
[15] = target: Serine/threonine-protein kinase 3 (Homo sapiens) (UniProt Q13188); details: Compound concentration 1000.0 nM
[16] = target: 5-hydroxytryptamine receptor 1B (Homo sapiens) (UniProt P28222); details: Compound concentration 10.0 uM
[17] = target: Dual specificity protein kinase TTK (Homo sapiens) (UniProt P33981); details: Compound concentration 1000.0 nM
[18] = target: Tyrosine-protein kinase Mer (Homo sapiens) (UniProt Q12866); details: Compound concentration 1000.0 nM
[19] = target: Ephrin type-A receptor 2 (Homo sapiens) (UniProt P29317); details: Compound concentration 1000.0 nM
[20] = target: Mitogen-activated protein kinase kinase kinase 4 (Homo sapiens) (UniProt Q9Y6R4); details: Compound concentration 1000.0 nM
[21] = target: Serine/threonine-protein kinase 16 (Homo sapiens) (UniProt O75716); details: Compound concentration 1000.0 nM
[22] = target: Tyrosine-protein kinase ITK/TSK (Homo sapiens) (UniProt Q08881); details: Compound concentration 1000.0 nM
[23] = target: Calcium/calmodulin-dependent protein kinase type 1 (Homo sapiens) (UniProt Q14012); details: Compound concentration 1000.0 nM
[24] = target: Homeodomain-interacting protein kinase 2 (Homo sapiens) (UniProt Q9H2X6); details: Compound concentration 1000.0 nM
[25] = target: Calcium/calmodulin-dependent protein kinase kinase 1 (Homo sapiens) (UniProt Q8N5S9); details: Compound concentration 1000.0 nM
[26] = test system: Epidermal growth factor receptor (Homo sapiens), P00533 [L858R,T790M]; details: Compound concentration 1000.0 nM
[27] = target: Mitogen-activated protein kinase 14 (Homo sapiens) (UniProt Q16539); details: Compound concentration 1000.0 nM
[28] = target: Serine/threonine-protein kinase Nek6 (Homo sapiens) (UniProt Q9HC98); details: Compound concentration 1000.0 nM
Chain of Serine/threonine-protein kinase Nek6 (Homo sapiens) (Q9HC98 whole entry): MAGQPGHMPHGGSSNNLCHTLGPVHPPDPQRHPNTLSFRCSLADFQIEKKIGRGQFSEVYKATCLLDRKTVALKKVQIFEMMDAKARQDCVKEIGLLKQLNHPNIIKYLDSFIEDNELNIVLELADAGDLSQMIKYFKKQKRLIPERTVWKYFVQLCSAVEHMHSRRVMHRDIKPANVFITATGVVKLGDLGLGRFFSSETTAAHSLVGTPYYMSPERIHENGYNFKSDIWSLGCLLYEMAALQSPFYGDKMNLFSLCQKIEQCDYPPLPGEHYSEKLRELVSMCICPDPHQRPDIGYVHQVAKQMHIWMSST

[29] = target: Serine/threonine-protein kinase NIM1 (Homo sapiens) (UniProt Q8IY84); details: Compound concentration 1000.0 nM
Chain of Serine/threonine-protein kinase NIM1 (Homo sapiens) (Q8IY84 whole entry): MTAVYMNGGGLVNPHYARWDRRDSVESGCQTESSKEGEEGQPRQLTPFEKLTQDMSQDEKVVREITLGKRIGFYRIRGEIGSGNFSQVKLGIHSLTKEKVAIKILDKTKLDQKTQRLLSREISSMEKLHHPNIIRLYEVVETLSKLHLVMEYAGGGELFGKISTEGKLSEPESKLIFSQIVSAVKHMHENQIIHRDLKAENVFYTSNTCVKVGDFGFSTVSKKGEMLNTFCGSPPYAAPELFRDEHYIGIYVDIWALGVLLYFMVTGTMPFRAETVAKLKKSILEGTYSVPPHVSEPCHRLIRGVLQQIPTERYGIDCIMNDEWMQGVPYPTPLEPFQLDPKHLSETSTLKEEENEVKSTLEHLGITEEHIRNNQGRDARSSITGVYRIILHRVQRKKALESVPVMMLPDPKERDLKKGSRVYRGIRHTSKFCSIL

[30] = target: T1, Alpha-1A adrenergic receptor (Homo sapiens) (UniProt P35348); details: Compound concentration 10.0 uM
T1 sequence (whole entry): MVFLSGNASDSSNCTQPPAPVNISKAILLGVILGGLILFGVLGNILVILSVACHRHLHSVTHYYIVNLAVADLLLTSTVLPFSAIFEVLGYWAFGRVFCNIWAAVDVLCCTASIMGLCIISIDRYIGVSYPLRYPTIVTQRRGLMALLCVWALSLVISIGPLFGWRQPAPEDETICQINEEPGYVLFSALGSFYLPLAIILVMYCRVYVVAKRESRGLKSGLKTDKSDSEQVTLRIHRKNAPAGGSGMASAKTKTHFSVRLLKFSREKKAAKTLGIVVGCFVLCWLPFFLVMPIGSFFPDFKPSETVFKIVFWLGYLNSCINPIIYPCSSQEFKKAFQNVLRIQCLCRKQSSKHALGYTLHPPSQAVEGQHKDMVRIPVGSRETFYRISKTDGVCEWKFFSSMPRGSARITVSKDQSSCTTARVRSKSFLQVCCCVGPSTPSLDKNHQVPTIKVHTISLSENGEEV

[31] = target: Proto-oncogene tyrosine-protein kinase ROS (Homo sapiens) (UniProt P08922); details: Compound concentration 1000.0 nM
[32] = target: Mitogen-activated protein kinase kinase kinase 2 (Homo sapiens) (UniProt Q9Y2U5); details: Compound concentration 1000.0 nM
[33] = test system: Tyrosine-protein kinase ABL1 (Homo sapiens), P00519 [F317L]; details: Compound concentration 1000.0 nM
[34] = target: STE20/SPS1-related proline-alanine-rich protein kinase (Homo sapiens) (UniProt Q9UEW8); details: Compound concentration 1000.0 nM
[35] = target: Activin receptor type-2A (Homo sapiens) (UniProt P27037); details: Compound concentration 1000.0 nM
[36] = target: Serine/threonine-protein kinase DCLK1 (Homo sapiens) (UniProt O15075); details: Compound concentration 1000.0 nM
Chain of Serine/threonine-protein kinase DCLK1 (Homo sapiens) (O15075 whole entry): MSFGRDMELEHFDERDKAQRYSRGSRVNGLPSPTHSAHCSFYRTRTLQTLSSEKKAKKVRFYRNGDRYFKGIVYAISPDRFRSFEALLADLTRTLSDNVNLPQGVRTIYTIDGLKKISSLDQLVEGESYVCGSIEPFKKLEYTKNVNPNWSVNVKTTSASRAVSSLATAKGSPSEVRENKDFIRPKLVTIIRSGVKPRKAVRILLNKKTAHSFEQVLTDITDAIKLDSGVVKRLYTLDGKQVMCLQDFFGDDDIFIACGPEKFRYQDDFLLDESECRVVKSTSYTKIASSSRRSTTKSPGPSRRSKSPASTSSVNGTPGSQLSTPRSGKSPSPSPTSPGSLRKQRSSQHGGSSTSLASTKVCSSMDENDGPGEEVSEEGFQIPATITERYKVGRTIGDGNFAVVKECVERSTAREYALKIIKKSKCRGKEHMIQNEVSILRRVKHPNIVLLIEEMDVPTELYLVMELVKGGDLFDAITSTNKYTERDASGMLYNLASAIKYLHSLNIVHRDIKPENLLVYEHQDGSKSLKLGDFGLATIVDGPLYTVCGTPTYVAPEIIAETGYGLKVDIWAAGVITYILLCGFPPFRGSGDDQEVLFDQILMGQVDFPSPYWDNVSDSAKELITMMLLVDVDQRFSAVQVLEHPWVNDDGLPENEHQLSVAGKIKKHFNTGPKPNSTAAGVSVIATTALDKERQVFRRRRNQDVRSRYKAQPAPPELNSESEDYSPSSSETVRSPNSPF

[37] = target: Cyclin-dependent kinase 13 (Homo sapiens) (UniProt Q14004); details: Compound concentration 1000.0 nM
[38] = target: Mitogen-activated protein kinase 10 (Homo sapiens) (UniProt P53779); details: Compound concentration 1000.0 nM
[39] = target: Cyclin-dependent kinase 9 (Homo sapiens) (UniProt P50750); details: Compound concentration 1000.0 nM
Chain of Cyclin-dependent kinase 9 (Homo sapiens) (P50750 whole entry): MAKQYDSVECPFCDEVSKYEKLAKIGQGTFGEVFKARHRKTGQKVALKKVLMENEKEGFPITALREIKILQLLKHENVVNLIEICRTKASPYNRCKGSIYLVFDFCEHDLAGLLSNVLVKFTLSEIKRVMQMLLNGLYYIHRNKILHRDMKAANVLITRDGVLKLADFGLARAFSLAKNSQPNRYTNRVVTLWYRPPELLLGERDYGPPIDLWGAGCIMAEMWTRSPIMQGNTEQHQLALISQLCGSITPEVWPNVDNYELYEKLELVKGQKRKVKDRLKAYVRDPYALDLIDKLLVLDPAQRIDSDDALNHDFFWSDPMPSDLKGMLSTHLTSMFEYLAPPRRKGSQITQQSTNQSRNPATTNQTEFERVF

Chain of Ribosomal protein S6 kinase alpha-3 (Homo sapiens) (P51812 whole entry): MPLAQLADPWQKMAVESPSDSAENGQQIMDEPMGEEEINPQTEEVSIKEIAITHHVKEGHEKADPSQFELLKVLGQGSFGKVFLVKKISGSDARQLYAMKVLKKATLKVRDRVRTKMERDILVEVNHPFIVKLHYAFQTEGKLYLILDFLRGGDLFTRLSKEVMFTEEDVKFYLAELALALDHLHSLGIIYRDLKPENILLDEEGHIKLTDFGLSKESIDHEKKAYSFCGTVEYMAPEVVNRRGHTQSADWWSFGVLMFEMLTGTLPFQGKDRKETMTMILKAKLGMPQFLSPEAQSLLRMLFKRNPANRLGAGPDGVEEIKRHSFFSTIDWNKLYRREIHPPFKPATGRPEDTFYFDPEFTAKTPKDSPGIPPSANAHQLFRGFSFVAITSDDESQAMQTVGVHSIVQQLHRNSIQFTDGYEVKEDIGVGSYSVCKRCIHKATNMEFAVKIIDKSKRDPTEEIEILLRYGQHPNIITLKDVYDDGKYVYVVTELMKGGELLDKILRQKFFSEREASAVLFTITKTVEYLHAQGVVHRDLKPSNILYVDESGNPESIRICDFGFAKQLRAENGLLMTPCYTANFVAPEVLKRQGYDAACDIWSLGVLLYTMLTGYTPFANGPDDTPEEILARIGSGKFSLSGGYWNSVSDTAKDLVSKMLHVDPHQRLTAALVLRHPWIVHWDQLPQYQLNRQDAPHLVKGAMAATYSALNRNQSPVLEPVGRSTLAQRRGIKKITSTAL
Chain of Serine/threonine-protein kinase WNK1 (Homo sapiens) (Q9H4A3 whole entry, looked up): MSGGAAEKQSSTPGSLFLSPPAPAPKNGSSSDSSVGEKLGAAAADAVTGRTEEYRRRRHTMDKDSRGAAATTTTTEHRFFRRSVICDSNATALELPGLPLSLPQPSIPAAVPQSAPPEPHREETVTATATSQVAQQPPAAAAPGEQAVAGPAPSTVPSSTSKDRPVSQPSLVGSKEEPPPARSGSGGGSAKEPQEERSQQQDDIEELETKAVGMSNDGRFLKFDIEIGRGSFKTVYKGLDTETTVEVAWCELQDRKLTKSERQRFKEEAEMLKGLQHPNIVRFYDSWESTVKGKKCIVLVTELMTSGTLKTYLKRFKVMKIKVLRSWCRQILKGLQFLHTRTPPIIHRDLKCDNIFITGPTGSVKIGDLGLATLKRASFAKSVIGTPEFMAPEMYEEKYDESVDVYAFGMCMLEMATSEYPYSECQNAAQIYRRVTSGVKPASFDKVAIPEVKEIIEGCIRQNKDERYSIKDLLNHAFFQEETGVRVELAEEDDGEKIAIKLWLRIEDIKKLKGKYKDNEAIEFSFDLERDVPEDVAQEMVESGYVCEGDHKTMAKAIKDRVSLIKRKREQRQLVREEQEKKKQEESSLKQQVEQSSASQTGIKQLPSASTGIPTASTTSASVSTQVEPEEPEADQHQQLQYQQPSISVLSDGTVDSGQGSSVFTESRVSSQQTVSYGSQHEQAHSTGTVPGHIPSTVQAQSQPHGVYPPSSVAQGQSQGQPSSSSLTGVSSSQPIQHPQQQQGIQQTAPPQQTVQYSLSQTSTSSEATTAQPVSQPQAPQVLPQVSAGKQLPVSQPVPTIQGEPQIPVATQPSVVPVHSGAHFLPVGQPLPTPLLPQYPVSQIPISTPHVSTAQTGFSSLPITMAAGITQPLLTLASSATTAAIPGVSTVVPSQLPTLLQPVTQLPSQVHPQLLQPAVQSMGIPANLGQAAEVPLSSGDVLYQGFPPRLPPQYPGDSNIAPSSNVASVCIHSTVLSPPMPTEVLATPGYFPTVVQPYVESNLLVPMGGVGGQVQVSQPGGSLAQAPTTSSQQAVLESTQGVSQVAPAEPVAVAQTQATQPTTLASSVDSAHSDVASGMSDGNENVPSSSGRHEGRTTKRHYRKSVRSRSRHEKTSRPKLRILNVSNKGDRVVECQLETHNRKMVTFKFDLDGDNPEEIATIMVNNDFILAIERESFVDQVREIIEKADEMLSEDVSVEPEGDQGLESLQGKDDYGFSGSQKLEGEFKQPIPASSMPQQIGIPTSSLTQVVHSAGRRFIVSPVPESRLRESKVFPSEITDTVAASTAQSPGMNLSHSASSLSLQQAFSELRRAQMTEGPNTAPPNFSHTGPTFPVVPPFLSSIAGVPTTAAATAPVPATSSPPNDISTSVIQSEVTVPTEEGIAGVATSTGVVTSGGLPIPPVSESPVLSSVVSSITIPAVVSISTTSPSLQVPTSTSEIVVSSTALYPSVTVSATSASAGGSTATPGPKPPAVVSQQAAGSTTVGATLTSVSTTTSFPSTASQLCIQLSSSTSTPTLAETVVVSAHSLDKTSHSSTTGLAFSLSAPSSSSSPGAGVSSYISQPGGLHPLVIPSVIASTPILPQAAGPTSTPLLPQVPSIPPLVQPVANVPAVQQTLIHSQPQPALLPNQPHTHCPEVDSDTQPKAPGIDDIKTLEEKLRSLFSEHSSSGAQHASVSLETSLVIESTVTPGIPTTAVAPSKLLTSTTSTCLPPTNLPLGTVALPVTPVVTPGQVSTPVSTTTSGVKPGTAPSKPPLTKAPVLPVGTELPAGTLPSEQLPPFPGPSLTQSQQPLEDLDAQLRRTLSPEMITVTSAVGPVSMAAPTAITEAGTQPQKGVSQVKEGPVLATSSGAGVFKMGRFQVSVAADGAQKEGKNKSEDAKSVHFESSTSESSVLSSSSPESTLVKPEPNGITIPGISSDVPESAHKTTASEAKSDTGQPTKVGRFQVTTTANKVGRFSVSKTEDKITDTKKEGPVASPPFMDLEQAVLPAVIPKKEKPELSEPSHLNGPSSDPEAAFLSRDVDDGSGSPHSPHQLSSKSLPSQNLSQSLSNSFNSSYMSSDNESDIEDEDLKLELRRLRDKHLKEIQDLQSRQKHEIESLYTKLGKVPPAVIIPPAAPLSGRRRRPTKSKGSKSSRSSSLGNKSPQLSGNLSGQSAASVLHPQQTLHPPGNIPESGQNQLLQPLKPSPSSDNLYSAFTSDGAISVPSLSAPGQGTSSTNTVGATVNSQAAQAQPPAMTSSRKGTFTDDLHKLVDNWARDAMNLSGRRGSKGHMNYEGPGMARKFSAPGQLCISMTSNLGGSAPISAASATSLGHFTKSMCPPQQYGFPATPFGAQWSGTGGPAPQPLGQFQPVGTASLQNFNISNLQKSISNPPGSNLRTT

O=C(NCc1ncc(C(F)(F)F)cc1Cl)c1ccc2c(c1)C1(CCS(=O)(=O)CC1)[C@@H](C1CC1)N2S(=O)(=O)c1ccc(F)cc1 [BAY-786]
inactive: residual activity [1] 82% | residual activity [2] 79% | residual activity [3] 85% | residual activity [4] 85% | residual activity [5] 89% | residual activity [6] 76% | residual activity [7] 68% | residual activity [8] 80% | residual activity [9] 79% | residual activity [10] 100% | residual activity [11] 75% | residual activity [12] 100% | residual activity [13] 98% | residual activity [14] 82% | residual activity [15] 87% | inhibition [16] -2.74% | residual activity [17] 100% | residual activity [18] 100% | residual activity [19] 84% | residual activity [20] 84% | residual activity [21] 99% | residual activity [22] 100% | residual activity [23] 97% | residual activity [24] 72% | residual activity [25] 72% | residual activity [26] 75% | residual activity [27] 100% | residual activity [28] 95% | residual activity [29] 78% | inhibition [30] 1.7% | residual activity [31] 100% | residual activity [32] 88% | residual activity [33] 68% | residual activity [34] 77% | residual activity [35] 100% | residual activity [36] 74% | residual activity [37] 89% | residual activity [38] 73% | residual activity [39] 100%

O=C(NCc1ncc(C(F)(F)F)cc1Cl)c1ccc2c(c1)C1(CCS(=O)(=O)CC1)[C@H](C1CC1)N2S(=O)(=O)c1ccc(F)cc1 [BAY-784]
inactive: residual activity [1] 100% | residual activity [2] 90% | residual activity [3] 100% | residual activity [4] 90% | residual activity [5] 100% | residual activity [6] 79% | residual activity [7] 63% | residual activity [8] 56% | residual activity [9] 80% | residual activity [10] 100% | residual activity [11] 80% | residual activity [12] 100% | residual activity [13] 98% | residual activity [14] 94% | residual activity [15] 100% | inhibition [16] -6.19% | residual activity [17] 78% | residual activity [18] 100% | residual activity [19] 100% | residual activity [20] 100% | residual activity [21] 88% | residual activity [22] 100% | residual activity [23] 84% | residual activity [24] 81% | residual activity [25] 100% | residual activity [26] 95% | residual activity [27] 100% | residual activity [28] 100% | residual activity [29] 83% | inhibition [30] -0.32% | residual activity [31] 100% | residual activity [32] 66% | residual activity [33] 74% | residual activity [34] 84% | residual activity [35] 86% | residual activity [36] 83% | residual activity [37] 88% | residual activity [38] 88% | residual activity [39] 100%
